Results on 14 compounds are retold here after patent publication US20060014723A1, “Anti-parasitic uses of borinic acid complexes” (priority 2004, published 2006).

In general, IC50 refers to the concentration that inhibits the measured activity by half.

Molecules are shown by their SMILES. In brackets after ≈: the same amount, converted by molar mass.

The test system of one experiment is P. falciparum K1. Briefly: Malaria in vitro screening model (3H-hypoxanthine incorporation). The experiment is classed as cell-based, Plasmodium falciparum. The settings on record: for IC50: Plasmodium falciparum, K1. The procedure:
[…] P. falciparum K1 is used in this study. K1 (a clone originating from Thailand) is resistant to chloroquine and pyrimethamine. The strains are maintained in RPMI 1640 medium with 0.36 mM hypoxanthine, supplemented with 25 mM N 2-hydroxyethyipiperazine-N-2-ethane-sulphonic acid (HEPES), 25 mM NaHCO3, neomycin (100 U/mL) and 5 g/L of ALBUMAX® II (lipid-rich bovine serum albumin, GIBCO, Grand Island, N.Y., USA), together with 5% washed human A+ erythrocytes. All cultures and assays are conducted at 37° C. under an atmosphere of 4% CO2, 3% O2 and 93% N2. Cultures are kept in incubation chambers filled with the gas mixture. Subcultures are diluted to a parasitemia of between 0.1 and 0.5% and the medium is changed daily.
Antimalarial activity is assessed using an adaptation of the procedures described by Desjardins et al. (Antimicrob. Agents Chemother. 16:710-718, 1979), and Matile and Pink (In: Lefkovits, I. and Pernis, B. (Eds.), Immunological Methods Vol. IV, Academic Press, San Diego, pp. 221-234, 1990).
Stock drug solutions are prepared in 100% dimethylsulfoxide (DMSO) at 10 mg/mL, and heated or sonicated if necessary to dissolve the sample. After use, the stocks are kept at −20° C. For the assays, the compound is further diluted in serum-free culture medium and finally to the appropriate concentration in complete medium without hypoxanthine.
Assays are performed in sterile 96-well microtiter plates, each well containing 200 μl of parasite culture (0.15% parasitemia, 2.5% hematocrit) with or without serial drug solutions. Seven 2-fold dilutions are used, covering a range from […] to 0.078 μg/mL. For active compounds the highest concentration is lowered (e.g., to […]); for plant extracts the highest concentration is increased to 50 μg/mL. […] After 48 hours of incubation at 37° C., 0.5 μCi ^3H-hypoxanthine is added to each well. Cultures are incubated for a further 24 h before being harvested onto glass-fiber filters and washed with distilled water. The radioactivity is counted using a Betaplate liquid scintillation counter (Wallac, Zurich, Switzerland). The results are recorded as counts per minute per well at each drug concentration and expressed as percentage of the untreated controls. IC50 values are calculated from the sigmoidal inhibition curves using Microsoft EXCEL.

In experiment [1] the test system is Leishmania donovani strain MHOM/ET1671L82. Briefly: Leishmaniasis in vitro screening model (axenic amastigotes, Alamar Blue). The experiment is classed as cell-based. To be noted: for IC50: Leishmania donovani, read-out: L. donovani IC50. The procedure: The Leishmania donovani strain MHOM/ET1671L82 (obtained from Dr. S. Croft, London School of Hygiene and Tropical Medicine) is used. The strain is maintained in the Syrian Golden hamster. Amastigotes are collected from the spleen of an infected hamster. Amastigotes are grown in axenic culture at 37° C. in SM medium (Cunningham I., J. Protozoal. 24:325-329, 1977) at pH 5.4 supplemented with 10% heat-inactivated fetal bovine serum (FBS) under an atmosphere of 5% CO2 in air.
(§1) After use the stocks are kept at −20° C. For the assays, the compound is further diluted to the appropriate concentration using complete medium.
Assays are performed in 96-well flat-bottom microtiter plates (Costar, Corning Inc.), each well containing 100 μl of culture medium with 105 amastigotes from axenic culture with or without a serial drug dilution. Concentration of amastigotes is determined in a CASY cell analyzing system (Scharfe System, Reutlingen, Germany). Before the amastigotes are counted, the parasite culture is passed twice through a 22-gauge needle to break up clusters of amastigotes.
The highest concentration for the test compounds is 90 μg/mL. Seven 3-fold dilutions are used, covering a range from […]. Each drug is tested in duplicate. Active compounds are tested twice for confirmation. After 72 hours of incubation, the plates are inspected under an inverted microscope to assure growth of the controls and sterile conditions.
Ten μL of Alamar Blue (12.5 mg resazurin dissolved in 100 mL distilled water) are then added to each well and the plates are incubated for another 2 hours. Then the plates are read with a Spectramax GEMINI XS microplate fluorometer (Molecular Devices Cooperation, Sunnyvale, Calif., USA) using an excitation wave length of 536 nm and an emission wave length of 588 nm.
Data are analyzed using the microplate reader software Softmax Pro (Molecular Devices Cooperation, Sunnyvale, Calif., USA). Decrease of fluorescence (i.e. inhibition) is expressed as percentage of the fluorescence of control cultures and plotted against the drug concentrations. The IC50 value is calculated from the sigmoidal inhibition curve by the software program.
(Alamar Blue is a resazurin reagent that responds to reducing activity.)

Experiment [2] concerns Trypanosoma cruzi Tulahuen C2C4 strain. Briefly: Chagas disease in vitro screening model (beta-galactosidase strain in L-6 cells). It counts as cell-based. To be noted: for IC50: Trypanosoma cruzi, TULAHUEN, L6, read-out: T. cruzi IC50. The procedure: Trypanosoma cruzi Tulahuen C2C4 strain, containing the β-galactosidase (Lac Z) gene (Buckner et al., Antimicrob. Agents Chemother 40:2592-2597, 1996) is used for this study.
The infective amastigote and trypomastigote stages are cultivated in L-6 cells (a rat skeletal myoblast cell line) in RPMI 1640 medium supplemented with 2 mM L-glutamine and 10% heat-inactivated fetal bovine serum in 12.5 cm^2 tissue culture flasks. Amastigotes develop intracellularly, differentiate into trypomastigotes, and leave the host cell. These trypomastigotes infect new L-6 cells and are the stages used to initiate an infection in the assay. All cultures and assays are conducted at 37° C. under an atmosphere of 5% CO2 in air.
as §1
Assays are performed in sterile 96-well microtiter plates, each well containing 100 μl medium with 2×10^3 L-6 cells. After 24 hours, […] of a trypanosome suspension containing 5×10^3 trypomastigote bloodstream forms from culture are added to the wells. Forty-eight hours later, the medium is removed from the wells and replaced by […] fresh medium, with or without a serial drug dilution. At this point the L-6 cells should be infected with amastigotes and no free trypomastigotes should be in the medium. Seven 3-fold drug dilutions are used, covering a range from 90 μg/mL to 0.123 μg/mL. Each drug is tested in duplicate. Active compounds are tested twice for confirmation. After 96 hours of incubation the plates are inspected under an inverted microscope to assure growth of the controls and sterility.
Then the substrate CPRG/Nonidet (50 μl) is added to all wells. A colour reaction will become visible within 2-6 hours and can be read photometrically at 540 nm. Data are transferred into a graphics program (e.g., EXCEL), sigmoidal inhibition curves determined and IC50 values calculated.

In experiment [3] the test system is T. b. rhodesiense STIB 900. The experiment can be described thus: African sleeping sickness in vitro screening model (Alamar Blue). To be noted: for IC50: Trypanosoma brucei. It counts as cell-based, Trypanosoma brucei rhodesiense. The procedure:
Bloodstream from trypomastigotes of the strains (a) and (c) are maintained in Minimal Essential Medium (MEM) with Earle's salts supplemented according to Baltz, et al., (EMBO J. 4:1273-1277, 1985) with 25 mM N-2-hydroxyethylpiperazine-N′-2-ethane-sulphonic acid (HEPES), 1 g/L additional glucose, 1% MEM non-essential amino acids (100×), 0.2 mM 2-mercaptoethanol, 2 mM sodium pyruvate, 0.1 mM hypoxanthine and 15% heat-inactivated horse serum.
All cultures and assays are conducted at 37° C. under an atmosphere of 5% CO2 in air.
After use the stocks are kept at −20° C. For the assays, the compound is further diluted in serum-free culture medium and finally to the appropriate concentration in complete medium without hypoxanthine.
Assays are performed in 96-well microtiter plates, each well containing 100 μL of culture medium with 8×10^3 bloodstream forms with or without a serial drug dilution. The highest concentration for the test compounds is 90 μg/mL. Seven 3-fold drug dilutions are used, covering a range from 90 μg/mL to 0.123 μg/mL. Each drug is tested in duplicate. Active compounds are tested twice for confirmation. The final result is the mean of the four individual IC50 values. After 72 hrs of incubation, the plates are inspected under an inverted microscope to assure growth of the controls and sterile conditions.
Ten μL of Alamar Blue (12.5 mg resazurin dissolved in 100 mL distilled water) are now added to each well and the plates are incubated for another 2 hours. Then the plates are read with a Spectramax GEMINI XS microplate fluorometer (Molecular Devices Cooperation, Sunnyvale, Calif., USA) using an excitation wavelength of 536 nm and an emission wave length of 588 nm.
IC50 values are determined using the microplate reader software Softmax Pro (Molecular Devices Cooperation, Sunnyvale, Calif., USA).

Turning to `CN(C)Cc1ccc(B(Oc2cccc3cccnc23)c2ccc(C#N)cc2)cc1` [Compound 125], in the experiment on P. falciparum K1, the “P. falciparum IC50” value turned out to be 4.973 µg/mL. The “L. donovani IC50” value in experiment [1] came to 0.38 µg/mL. Besides, the “T. cruzi IC50” value in experiment [2] stood at 4.9 µg/mL. Moreover, in experiment [3], the “T. b. rhodesiense IC50” value came out at 0.5 µg/mL.
In the case of `C=CB(Oc1c(Cl)cc(Cl)c2ccc(C)nc12)c1cccnc1` [Compound 82], the “P. falciparum IC50” value with P. falciparum K1 turned out to be 2.647 µg/mL. Moreover, the “L. donovani IC50” value in experiment [1] was 0.22 µg/mL. Besides, the “T. cruzi IC50” value in experiment [2] is 1.95 µg/mL. Besides, in experiment [3], the “T. b. rhodesiense IC50” value amounted to 1.19 µg/mL.
Turning to `N#Cc1cccc(B(Oc2cccc3cccnc23)c2cc(F)ccc2F)c1` [Compound 32, (3-Cyanophenyl)(2,5-difluorophenyl)borinic acid quinolin-8-yl ester], the IC50 with P. falciparum K1 came out at 1.82 µg/mL (≈ 4.92 µM); in experiment [1], 0.41 µg/mL (≈ 1.11 µM); in experiment [2] it was 0.73 µg/mL (≈ 1.97 µM); in experiment [3], 0.41 µg/mL (≈ 1.11 µM).
Take `C=CB(Oc1cccc2cccnc12)c1ccc(F)c(Cl)c1` [Compound 116]: in the experiment with P. falciparum K1, the “P. falciparum IC50” value stood at 3.95 µg/mL. For the same compound, in experiment [1], the “L. donovani IC50” value is over 30 µg/mL. For the same compound, in experiment [2], the “T. cruzi IC50” value is 3.65 µg/mL. Also, the “T. b. rhodesiense IC50” value in experiment [3] was 0.5865 µg/mL.
For `CS(=O)(=O)Nc1ccc(B(Oc2cccc3cccnc23)c2cccc(Cl)c2)cc1` [Compound 108] the same measures were 2.417 µg/mL, 0.59 µg/mL, 4.95 µg/mL and 0.305 µg/mL.
As to `O=C(OB(c1ccc(Cl)cc1)c1ccc(Cl)cc1)c1ncccc1OCCN1CCOCC1` [Compound 76], in the experiment with P. falciparum K1, the “P. falciparum IC50” value worked out at 3.81 µg/mL. Further, the “L. donovani IC50” value in experiment [1] came out at 2 µg/mL. The “T. cruzi IC50” value in experiment [2] came to 4.05 µg/mL. Moreover, in experiment [3], the “T. b. rhodesiense IC50” value came to 19.8 µg/mL.
Regarding `COc1cc(B(Oc2cccc3cccnc23)c2cccc(F)c2)ccc1Cl` [Compound 45, (4-Chloro-3-methoxyphenyl)(3-fluorophenyl)borinic acid quinolin-8-yl ester], the IC50 in the experiment on P. falciparum K1 came to 1.84 µg/mL (≈ 4.7 µM); in experiment [1], 0.5 µg/mL (≈ 1.28 µM); in experiment [2], 1.15 µg/mL (≈ 2.92 µM); in experiment [3], 0.48 µg/mL (≈ 1.23 µM).
Turning to `N#Cc1ccc(B(Oc2cccc3cccnc23)c2ccc(F)c(F)c2)cc1` [Compound 97], the “P. falciparum IC50” value in the experiment with P. falciparum K1 came out at 4.036 µg/mL. Moreover, the “L. donovani IC50” value in experiment [1] is 0.58 µg/mL. Further, the “T. cruzi IC50” value in experiment [2] was 3.45 µg/mL. Also, the “T. b. rhodesiense IC50” value in experiment [3] is 0.37 µg/mL.
As for `Fc1cc(B(Oc2cccc3cccnc23)c2ccc(Cl)cc2)cc(C(F)(F)F)c1` [Compound 47, (4-Chlorophenyl)(3-fluoro-5-trifluoromethylphenyl)borinic acid quinolin-8-yl ester], the IC50 amounted to 2.07 µg/mL (≈ 4.82 µM) in the experiment on P. falciparum K1, 0.51 µg/mL (≈ 1.19 µM) in experiment [1], 1.7 µg/mL (≈ 3.96 µM) in experiment [2] and 0.5 µg/mL (≈ 1.16 µM) in experiment [3].
For `CC1(C)COC(c2cccc(B(Oc3cccc4cccnc34)c3cccc(F)c3)c2)=N1` [Compound 19, [3-(4,5-Dihydro-4,4-dimethyloxazol-2yl)phenyl](3-fluorophenyl)borinic acid quinolin-8-yl ester], the IC50 in the experiment on P. falciparum K1 is 1.89 µg/mL (≈ 4.45 µM); in experiment [1], 0.66 µg/mL (≈ 1.56 µM); in experiment [2], 1.33 µg/mL (≈ 3.15 µM); in experiment [3], 0.32 µg/mL (≈ 0.754 µM).
For `CC1(C)COC(c2cccc(B(Oc3cccc4cccnc34)C3CC3)c2)=N1` [Compound 20, Cyclopropyl[3-(4,5-dihydro-4,4-dimethyloxazol-2yl)phenyl]borinic acid quinolin-8-yl ester], the IC50 with P. falciparum K1 worked out at 1.84 µg/mL (≈ 4.97 µM); in experiment [1], 0.55 µg/mL (≈ 1.49 µM); in experiment [2], 0.86 µg/mL (≈ 2.32 µM); in experiment [3] it was 0.245 µg/mL (≈ 0.662 µM).
`CC1(C)COC(c2cccc(B(Oc3c(Cl)cc(Cl)c4cccnc34)c3cccc(F)c3)c2)=N1` [Compound 81]: in the experiment with P. falciparum K1, the “P. falciparum IC50” value is 3.355 µg/mL. Besides, in experiment [1], the “L. donovani IC50” value turned out to be 0.18 µg/mL. In experiment [2], the “T. cruzi IC50” value was determined as 4.2 µg/mL. Besides, the “T. b. rhodesiense IC50” value in experiment [3] turned out to be 1.9 µg/mL.
For the compound `Fc1ccc(B(Oc2cccc3cccnc23)c2ccc(Cl)cc2)cc1` [Compound 15, (4-chlorophenyl)(4-fluorophenyl) borinic acid quinolin-8-yl ester], the half-inhibitory concentration (IC50) worked out at 1.82 µg/mL (≈ 5.03 µM) in the experiment with P. falciparum K1, 0.5 µg/mL (≈ 1.38 µM) in experiment [1], 0.906 µg/mL (≈ 2.51 µM) in experiment [2] and 0.28 µg/mL (≈ 0.774 µM) in experiment [3].
The matching figures for `N#Cc1cccc(B(Oc2cccc3cccnc23)c2ccccc2F)c1` [Compound 33, (3-Cyanophenyl)(2-fluorophenyl)borinic acid quinolin-8-yl ester]: 1.79 µg/mL (≈ 5.08 µM), 0.61 µg/mL (≈ 1.73 µM), 1.39 µg/mL (≈ 3.95 µM) and 0.3 µg/mL (≈ 0.852 µM).
